Results published in the supplement of paper PMC13207355.
Counter-ions that a name gives are not always drawn.

Columns and labels:
Conditions in all cases: exposure time: 72 h
[1] = test system: E34 (patient-derived glioblastoma stem cells of proneural subtype); test: phenotypic distance (Euclidean, principal components) from DMSO controls (arbitrary units); higher = stronger morphological change
[2] = test system: E31 (patient-derived glioblastoma stem cells of proneural subtype); test: as above
[3] = test system: E28 (patient-derived glioblastoma stem cells of classical subtype); test: as above
[4] = test system: E57 (patient-derived glioblastoma stem cells of mesenchymal subtype); test: as above
[5] = test system: E21 (patient-derived glioblastoma stem cells of mesenchymal subtype); test: as above
[6] = test system: E13 (patient-derived glioblastoma stem cells of classical subtype); test: as above
[7] = test system: FT3469 (normal neural stem cell line); test: as above
[8] = test system: E34; test: surviving fraction (nuclei count normalised to DMSO); higher = more cells surviving (less toxic)
[9] = test system: E31; test: as above
[10] = test system: E28; test: as above
[11] = test system: E57; test: as above
[12] = test system: E21; test: as above
[13] = test system: E13; test: as above
[14] = test system: FT3469; test: as above
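Wherever phenotypic distance (Euclidean, principal components) from DMSO controls is given: cell Painting imaging in 384-well plates, CellProfiler features reduced to at least 20 principal components, Euclidean distance versus same-plate DMSO vehicle wells (0.1% v/v), median over six images per well.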
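Wherever surviving fraction (nuclei count normalised to DMSO) is given: nuclei counted by high-content imaging of Hoechst-stained cells in laminin-coated 384-well plates, relative to 0.1% DMSO vehicle wells, with staurosporine as cell-death control.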

COc1cccc2c1C(=O)c1c(O)c3c(c(O)c1C2=O)C[C@@](O)(C(=O)CO)C[C@@H]3O[C@H]1C[C@H](N)[C@H](O)[C@H](C)O1 [Doxorubicin hydrochloride]
Conditions	phenotypic distance	surviving fraction
[1], 4.1 nM	0.849	–
[1], 12.3 nM	3.53	–
[1], 37 nM	4.3	–
[1], 111.1 nM	3.08	–
[1], 333.3 nM	2.7	–
[1], 1000 nM	5.02	–
[1], 3000 nM	4.21	–
[2], 4.1 nM	2.91	–
[2], 12.3 nM	2.49	–
[2], 37 nM	2.07	–
[2], 111.1 nM	2.28	–
[2], 333.3 nM	4.77	–
[2], 1000 nM	5.51	–
[2], 3000 nM	5.71	–
[3], 4.1 nM	2.14	–
[3], 12.3 nM	2.39	–
[3], 37 nM	2.6	–
[3], 111.1 nM	3.51	–
[3], 333.3 nM	3.16	–
[3], 1000 nM	3.08	–
[3], 3000 nM	5.26	–
[4], 4.1 nM	1.85	–
[4], 12.3 nM	4.6	–
[4], 37 nM	8.27	–
[4], 111.1 nM	7.23	–
[4], 333.3 nM	7.01	–
[4], 1000 nM	7.35	–
[4], 3000 nM	7.3	–
[5], 4.1 nM	1.5	–
[5], 12.3 nM	4.4	–
[5], 37 nM	6.35	–
[5], 111.1 nM	5.11	–
[5], 333.3 nM	5.4	–
[5], 1000 nM	5.92	–
[5], 3000 nM	6.77	–
[6], 4.1 nM	2.25	–
[6], 12.3 nM	3.82	–
[6], 37 nM	5.4	–
[6], 111.1 nM	6.04	–
[6], 333.3 nM	6.31	–
[6], 1000 nM	6.48	–
[6], 3000 nM	6.01	–
[7], 4.1 nM	1.83	–
[7], 12.3 nM	1.46	–
[7], 37 nM	1.66	–
[7], 111.1 nM	1.6	–
[7], 333.3 nM	4.2	–
[7], 1000 nM	3	–
[7], 3000 nM	8.29	–
[8], 4.1 nM	–	0.738
[8], 12.3 nM	–	0.599
[8], 37 nM	–	0.502
[8], 111.1 nM	–	0.539
[8], 333.3 nM	–	0.502
[8], 1000 nM	–	0.346
[8], 3000 nM	–	0.123
[9], 4.1 nM	–	0.425
[9], 12.3 nM	–	0.381
[9], 37 nM	–	0.269
[9], 111.1 nM	–	0.186
[9], 333.3 nM	–	0.105
[9], 1000 nM	–	0.0519
[9], 3000 nM	–	0.0645
[10], 4.1 nM	–	0.535
[10], 12.3 nM	–	0.403
[10], 37 nM	–	0.341
[10], 111.1 nM	–	0.163
[10], 333.3 nM	–	0.174
[10], 1000 nM	–	0.35
[10], 3000 nM	–	0.0586
[11], 4.1 nM	–	0.74
[11], 12.3 nM	–	0.411
[11], 37 nM	–	0.229
[11], 111.1 nM	–	0.172
[11], 333.3 nM	–	0.164
[11], 1000 nM	–	0.113
[11], 3000 nM	–	0.0765
[12], 4.1 nM	–	0.799
[12], 12.3 nM	–	0.544
[12], 37 nM	–	0.428
[12], 111.1 nM	–	0.237
[12], 333.3 nM	–	0.17
[12], 1000 nM	–	0.0999
[12], 3000 nM	–	0.0192
[13], 4.1 nM	–	0.639
[13], 12.3 nM	–	0.527
[13], 37 nM	–	0.409
[13], 111.1 nM	–	0.265
[13], 333.3 nM	–	0.188
[13], 1000 nM	–	0.0799
[13], 3000 nM	–	0.0133
[14], 4.1 nM	–	0.574
[14], 12.3 nM	–	0.678
[14], 37 nM	–	0.598
[14], 111.1 nM	–	0.582
[14], 333.3 nM	–	0.234
[14], 1000 nM	–	0.149
[14], 3000 nM	–	0.0213

O=c1c2ccccc2[se]n1-c1ccccc1 [Ebselen]
Conditions	phenotypic distance	surviving fraction
[1], 4.11523 nM	0.415	–
[1], 12.34567901 nM	0.549	–
[1], 37.037 nM	0.806	–
[1], 111.1111111 nM	0.859	–
[1], 333.333 nM	0.532	–
[1], 1000 nM	1.03	–
[1], 3000 nM	1.91	–
[2], 4.11523 nM	0.71	–
[2], 12.34567901 nM	0.778	–
[2], 37.037 nM	0.875	–
[2], 111.1111111 nM	0.398	–
[2], 333.333 nM	0.33	–
[2], 1000 nM	0.763	–
[2], 3000 nM	3.3	–
[3], 4.11523 nM	0.754	–
[3], 12.34567901 nM	1.01	–
[3], 37.037 nM	0.601	–
[3], 111.1111111 nM	0.529	–
[3], 333.333 nM	0.764	–
[3], 1000 nM	0.79	–
[3], 3000 nM	2.56	–
[4], 4.11523 nM	0.316	–
[4], 12.34567901 nM	0.564	–
[4], 37.037 nM	0.5	–
[4], 111.1111111 nM	0.407	–
[4], 333.333 nM	0.482	–
[4], 1000 nM	1	–
[4], 3000 nM	4.42	–
[5], 4.11523 nM	0.63	–
[5], 12.34567901 nM	1.29	–
[5], 37.037 nM	0.667	–
[5], 111.1111111 nM	1.02	–
[5], 333.333 nM	0.791	–
[5], 1000 nM	0.556	–
[5], 3000 nM	1.89	–
[6], 4.11523 nM	0.891	–
[6], 12.34567901 nM	0.779	–
[6], 37.037 nM	0.477	–
[6], 111.1111111 nM	0.532	–
[6], 333.333 nM	0.51	–
[6], 1000 nM	0.854	–
[6], 3000 nM	1.59	–
[7], 4.11523 nM	0.678	–
[7], 12.34567901 nM	0.843	–
[7], 37.037 nM	0.785	–
[7], 111.1111111 nM	0.587	–
[7], 333.333 nM	1.06	–
[7], 1000 nM	0.639	–
[7], 3000 nM	4.47	–
[8], 4.11523 nM	–	0.901
[8], 12.34567901 nM	–	1.1
[8], 37.037 nM	–	0.955
[8], 111.1111111 nM	–	1
[8], 333.333 nM	–	1.04
[8], 1000 nM	–	1.05
[8], 3000 nM	–	0.512
[9], 4.11523 nM	–	0.993
[9], 12.34567901 nM	–	0.922
[9], 37.037 nM	–	1.2
[9], 111.1111111 nM	–	1.12
[9], 333.333 nM	–	1.13
[9], 1000 nM	–	0.905
[9], 3000 nM	–	0.127
[10], 4.11523 nM	–	0.974
[10], 12.34567901 nM	–	1.18
[10], 37.037 nM	–	1.14
[10], 111.1111111 nM	–	1.12
[10], 333.333 nM	–	1.15
[10], 1000 nM	–	1.1
[10], 3000 nM	–	0.0788
[11], 4.11523 nM	–	1.04
[11], 12.34567901 nM	–	0.962
[11], 37.037 nM	–	1.01
[11], 111.1111111 nM	–	1.05
[11], 333.333 nM	–	0.995
[11], 1000 nM	–	1.04
[11], 3000 nM	–	0.343
[12], 4.11523 nM	–	1.06
[12], 12.34567901 nM	–	1.15
[12], 37.037 nM	–	1.11
[12], 111.1111111 nM	–	1.08
[12], 333.333 nM	–	1.1
[12], 1000 nM	–	1.14
[12], 3000 nM	–	0.582
[13], 4.11523 nM	–	1.18
[13], 12.34567901 nM	–	1.04
[13], 37.037 nM	–	1.05
[13], 111.1111111 nM	–	1.07
[13], 333.333 nM	–	1.16
[13], 1000 nM	–	1.11
[13], 3000 nM	–	0.579
[14], 4.11523 nM	–	1.14
[14], 12.34567901 nM	–	1.14
[14], 37.037 nM	–	1.11
[14], 111.1111111 nM	–	1.15
[14], 333.333 nM	–	1.32
[14], 1000 nM	–	0.997
[14], 3000 nM	–	0.189
